# Source: PMC8741257, “Identification of novel non-toxic and anti-angiogenic α-fluorinated chalcones as potent colchicine binding site inhibitors” (Journal of Enzyme Inhibition and Medicinal Chemistry, 2022)
# Tests used:
# [1] = test system: Tg(flk1: EGFP) zebrafish embryos; test: Zebrafish angiogenesis assay; assay type: in vivo
# Protocol: Since zebrafish embryos emerged as a powerful model for studying human diseases, the transgenic zebrafish with green fluorescent protein (GFP) labelled endothelial cells have been used extensively for testing angiogenesis in vivo. In this work, an anti-angiogenetic activity of 4c was confirmed by Tg(flk1: EGFP) zebrafish embryos in vivo assay. Fluorescently labelled 3hpf period embryos were treated with different doses of 4c and incubated at 28.5 °C. Until 30hpf, zebrafish was imaged under a fluorescent microscopy to observe the affection of applied agents on intersegmental vessels (ISVs) development. As shown in the Figure 11, ISVs were clearly observed in newly born zebrafish embryos of solvent-treated control group, which were growing at regular longitudinal and equidistant intervals.
# The transgenic flk: enhanced GFP zebrafish embryos were transferred into 6-well plates (n = 30 per well) with 1 ml of aquaculture water (0.2 g/L of Instant Ocean Salt in distilled water) and raised at 28 °C. Then the embryos dechorionated at 12 h post fertilisation (hpf) was treated with the indicated concentrations of 4c or vehicle (DMSO). About 30 embryos were screened for each concentration gradient. At 30hpf, the zebrafish embryos were stripped, anaesthetised, and fixed with agarose gel. The images were taken under the microscope, and the number of blood vessels between the segments was recorded. Results were obtained from three independent determinations and presented as mean ± SD.
# MGC-803 cells [2] = test: Transwell cell invasion assay; assay type: cell-based, human; settings: compared with control group
# Protocol: Metastasis is one of the leading causes of morbidity and mortality of cancer patients. Microtubules-targeting inhibitors have also been reported to interfere with cell migration and invasion. Accordingly, the in vitro would healing assay and Transwell assays were performed to investigate the inhibitory effect of compound 4c on the migration and invasion of MGC-803 cells. As shown Figure 8(A,C), the scratches healing rate in the control group was approximately 64%. By contrast, the cells treated with 4c have much smaller scratched areas recovery at all concentrations. […] Cell invasion is an important malignant behaviour during cancer metastasis. In Tanswell assay, MGC-803 cells were seeded into upper chambers with pre-coated Matrigel stimulating base membrane in order to assess the cellular invasion.
# Matrix gel was thawed overnight at 4 °C. […] Transwell was placed into a 24-well plate, 35% acetic acid (300 μL) was added to the upper chamber of the chamber, and after acetic acid completely entered the lower chamber, 100 μL of acetic acid from the lower chamber was aspirated into a 96-well plate, and three replicate wells of each concentration were shaken for 10 min, and the absorbance was measured at 560 nm with an enzyme marker.
# [3] = test system: U937 (human leukaemia cells); test: Antiproliferative activity (CCK-8 assay); assay type: cell-based; settings: U-937, mean ± SD, three separated experiments, 72 h
# Protocol: MCF-7, MGC-803, Hela and HepG-2 cell lines were cultured in a base medium (90% DMEM and 10% FBS), A549 and U937 were cultured in a base medium (90% PRMI-1640 and 10% FBS) at 37 °C, 5% CO2 and a saturated humidity atmosphere. All the mediums were supplemented with 10% FBS and 1% […]/streptomycin (all cells were purchased from Shanghai Institutes for Biological Sciences, Chinese Academy of Sciences, Shanghai, China).
# MGC-803 cells were collected and seeded into 96 well plates at a density of 8000/well. The mediums containing drugs and cell suspension were added into the well. The cells were incubated in 5% CO2 incubator at 37 °C for 72 h. Each well was added 10 µL CCK8 solution, and the incubation time was 3–4 h. The absorbance value at 450 nm was measured by microplate reader. Data are calculated with GraphPad Prism5 software.
# MGC-803 cells [4] = test: Cell cycle distribution (PI, flow cytometry); assay type: cell-based, human
# Text: Most inhibitors of microtubule polymerisation are able to block mitosis in G2/M phase, which ultimately leads to apoptosis by disrupting tubulin-microtubule balance. To elucidate whether the cytotoxicity of 4c was due to cell cycle arrest, flow cytometry analysis and PI marking method were used to evaluate the effects of 4c on the MGC-803 cell cycle distribution. […] A significant difference was also observed when we further evaluated its effects using different time points (Figure 5(C,D)). MGC-803 cells treated with 4c (36 nM) can be arrested in the G2/M phase from 30.37% at 6 h to 45.37% at 24 h.
# MGC-803 cells (15 × 10^4 cells/well) were inoculated in 6-well plates and incubated at 37 °C for 24 h, and then treated with 4c (18, 36, 72nΜ). The collected cells were washed with cold PBS and then fixed in 75% ethanol in PBS at −20 °C overnight. The cells were then washed twice with PBS buffer and then stained with 500 μL of […] (PI, 5 mg) staining solution […] for 15 min in the dark. Samples were immediately assayed for DNA content using a flow cytometer (Becton, Dickinson and Company, USA). The percentage of cell cycle phases was analysed by the software provided in the instrument.
# [5] = test system: p-Cdc2, CyclinB1 and P21 in MGC-803 cells; test: Western blot of G2/M regulatory proteins; assay type: cell-based, human; settings: 18, 36, 72 nM, 48 h
# Text: Cdc2 kinase, a member of Ser/Thr protein family, is considered as a driving force of G2/M transition. Activation of Cdc2 catalysed the phosphorylation of a variety of substrate proteins, thus promoting cell transition from G2 phase to M phase. Cyclin B1 plays a vital role to control cell transition from G2 to M phase. P21 also effectively regulates cell cycle progress by increasing the intracellular G2/M phase ratio. Therefore, the expression of cell cycle checkpoint protein was investigated.
# The protein levels in MGC-803 cells were assessed via western blot analysis. Exponentially growing MGC-803 cells were seeded at a density of 6 × 10^5/dishes and incubated overnight. Then 18, 36, 72nΜ of 4c were added in triplicate for 48 h incubation. After the cells were washed with cold PBS, the supernatant was removed. The supernatant was collected by centrifuging at 12,000 g for 10 min at 4 °C. The protein concentration in the supernatant was determined by using a BSA protein assay kit. Samples were prepared in SDS-PAGE loading buffer after BSA analysis to quantify proteins, then boiled for 10 min at 100 °C. Western blot analyses were conducted after separation by SDS-PAGE electrophoresis and transfer to nitrocellulose filter (NC) membranes. Immunoblotting was performed according to the antibody manufacturers’ recommendations.
smiles,measurement,setting,value
"COc1cc(C(=O)/C(F)=C/c2c[nH]c3cc(Br)ccc23)cc(OC)c1OC [4c, (Z)-3–(6-bromo-1H-indol-3-yl)-2-fluoro-1–(3,4,5-trimethoxyphenyl)prop-2-en-1-one]",embryo development and blood vessels,[1]; dose ≥ 5 µM,marked delay in development and only scattered or fragmentary blood vessels were observed
same,lowest dose with anti-angiogenic phenotype,[1]; imaged at 30hpf,2.5 µM
same,number and length of intersegmental vessels (ISVs),"[1]; imaged at 30hpf, different doses",all dose-dependently reduced
same,"invasion ability (Transwell, Matrigel)",MGC-803 cells [2],significant reduced invasion ability
same,IC50,[3],25 ± 1 nM
same,percentage of cells in G2/M,"MGC-803 cells [4]; 18 nM, control 32.15%",50.47%
same,percentage of cells in G2/M,"MGC-803 cells [4]; 36 nM, 6 h",30.37%
same,percentage of cells in G2/M,"MGC-803 cells [4]; 36 nM, control 32.15%",83.65%
same,percentage of cells in G2/M,"MGC-803 cells [4]; 72 nM, control 32.15%",90.21%
same,Cyclin B1 expression,[5],caused a decrease in Cyclin B1
same,P21 expression,[5],increased the expression of tumour suppressor protein P21
same,phosphorylation levels of Cdc2,[5],decrease the phosphorylation levels of Cdc2 in a concentration-dependent manner
